One data set concerns Aspc1. Briefly: Cell proliferation / cell death assay, Aspc1. The format is cell-based, human. The conditions noted are these: Aspc1, 10-100 μM. As to the method:
(§1) Human pancreatic cancer cell lines (Panc-1, MiaPaca2, BXPC3, Aspc 1), human hepatoma cell line (HuH7), human gastric cancer cell lines (AGS, MKN45), human colon cancer cell line (CoCM-1), human mammary cancer cell line (MCF-7), human neuroblastoma (SH-SY5Y), human prostate cancer cells (PC3), and murine Ehrlich ascites cancer cells and mouse 3T3-L1 fibroblasts were obtained from American Type Culture Collection (Rockville, Md., USA). The cancer cells were cultured in RPMI 1640 containing 10% fetal calf serum. Cultures were maintained at 37° C. in a humidified atmosphere of 5% CO2.
(§2) Cell proliferation assays were performed with the CellTiter 96 AQueous One Solution Cell Proliferation Assay kit according to the manufacturer's instructions (Promega, Madison, Wis., USA). Briefly, 5×10^3 cells/well in medium were placed onto 96-well plates. IGs were added to cellular cultures at final concentrations of 0, 1, 10, and 100 μM. Cultures were incubated for 3 days or 7 days and then added to 20 μL/well of CellTiter 96 AQueous One Solution Reagent, which contains a tetrazolium compound, 3-(4,5-dimethylthiazol-2-yl)-5-(3-carboxymethoxyphenyl)-2-(4-sulfophenyl)-2H-tetrazolium, an inner salt; MTS was added to the culture medium. After incubating the plate for 1 h in a CO2 incubator, absorbance at 490 nm was recorded with a 96-well plate reader.

Data set [1] concerns human neuroblastoma (SH-SY5Y). The experiment in a line: Cell proliferation / cell death assay, SH-SY5Y. The settings on record: 10-100 μM. The class given is cell-based. As to the method: as §1
as §2, with “Cultures were incubated for 3 days or 7 days and then added to 20 μL/well” left out

The subject of data set [2] is human normal cultured cells. The experiment in a line: Proliferation of human normal cultured cells. The class given is cell-based. The conditions noted are these: 1-100 μM, data not shown. As to the method: Human primary culture cells, dermal fibroblasts, epidermal keratinocytes and umbilical vein endothelial cells were purchased from Cell Applications (San Diego, Calif., USA) and cultured according to the manufacturer's instructions.
as §2

The test system of data set [3] is Ehrlich ascites cancer cells. The experiment in a line: Animal survival analysis, ddY mice bearing Ehrlich ascites cancer cells. The class given is in vivo. The conditions noted are these: daily intraperitoneal for 7 days. As to the method: Male ddy mice weighing 20-30 g obtained from and maintained on a standard diet and water ad libitum. Ehrlich ascites cancer cells (5×10^6 cells) were injected intraperitoneal to the mice. After 7 days later, the mice were subjected to daily intraperitoneal injection of IG1 or IG1 plus alkyl-acyl-phosphatidic acids (AAPAs) for additional 7 days. The endpoint of experiment was determined by spontaneous death of animals.

The next data set concerns 3T3-L1 adipocytes. The experiment in a line: Glycogen synthesis in 3T3-L1 adipocytes. The format is cell-based, mouse. The settings on record: 10-1000 μM. As to the method:
3T3-L1 fibroblasts were maintained in Dulbecco's modified Eagle's medium (DMEM) with 25 mM glucose plus 10% fetal bovine serum (FBS). Following 2 days at confluence, differentiation was initiated by the addition of DMEM containing 10% FBS, 167 nM insulin, […] dexamethasone, and 0.5 mM isobutylmethylxanthine. Three days later, the medium was replaced with DMEM plus 10% FBS and 167 nM insulin. After 2 more days, the medium was switched to DMEM plus 10% fetal bovine serum. Adipocytes were used 6-14 days after completion of the differentiation protocol, when >90% of the cells expressed the adipocyte phenotype. Prior to experiments, cells were washed two times with DMEM medium containing 5 mM glucose, 0.2% bovine serum albumin, 25 mM Hepes (pH 7.4), 100 units/ml penicillin, 100 units/ml streptomycin and 0.29 mg/ml glutamine, and were incubated in the same medium for 2 h. Glycogen and lipid synthesis were measured in 24-well dishes. […] The lipids were then extracted overnight with 5 ml of Betafluor (National Diagnostics), and glucose incorporation into lipid was measured by scintillation counting. 400 μl of the cell suspension was added to 600 μl of 50% KOH, and glycogen was precipitated and radioactivity was counted by a liquid scintillation counter

Data set [4] deals with streptozotocin (STZ)-diabetic mice. Briefly: Intravenous administration of IG1, STZ-diabetic mice. The format is in vivo. As to the method:
Male C57BL/6 mice were housed individually and given free access to a standard diet (65% carbohydrate, 4% fat, and 24% protein) or a high-fat diet (Quick Fat; 60.2% carbohydrate, 15.3% fat, and 24.5% protein; Clea Japan, Tokyo, Japan), starting at 5 weeks of age, for 5 weeks. Db/db mice also were housed individually and given free access to a standard diet. C57BL/6 mice at 5 weeks of age, were received a single dose of 75 μg/g body weight streptozotoxin (STZ). 7 days after injections, the mice, whose fasting plasma glucose concentrations were over 400 mg/dl, were used as STZ-diabetic mice. […]
Frozen livers were homogenized, and triglycerides were extracted with CHCl3:CH3OH (2:1, vol:vol), dried and resuspended in 2-propanol (17). Triglyceride contents were measured using Lipidos liquid (TOYOBO, Osaka, Japan). […] Glycogen content was determined by the phenol-sulfuric acid spectrophotometric method at 490 nm (18) and expressed as micrograms of glycogen per milligram of liver.
Blood glucose was assayed with Glucose Ace (Sanwa Kagaku Kenkyusho, Nagoya, Japan). Serum insulin and leptin were determined with ELISA kits (Morinaga Institute of Biological Science, Yokohama, Japan). Serum adiponectin and tumor necrosis factor-α (TNF-α) concentrations were measured with an ELISA kit (Ohtsuka Pharmaceutical, Tokyo, Japan) and a TNF-α assay kit (Amersham Biosciences, Uppsala, Sweden), respectively. […]

The structures appear in SMILES notation.

For `CCCCCCCCCCCCCCCC(=O)O[C@@H]1C(O)C(O)[C@H](O)C(O[C@H]2OC(CO)[C@@H](O)[C@H](O)C2N)C1O` (stereo in doubt) [IG1, 2-Amino-2-deoxy-α-D-glucopyranosyl-(1→6)-2-palmitoyl-D-myo-inositol], the “rapid cancer cell death” value (in the data set with Aspc1; in data set [1]) was “rapid cancer cell death was demonstrated” each time. In data set [2], the “proliferation of human normal cultured cells” value is listed as “did not affect the proliferation”. The survival times entry in data set [3] is on record as “did not affect the survival times”. In the data set on 3T3-L1 adipocytes, the glycogen synthesis entry is given as “stimulates”. For the same compound, the “hepatic and muscular glycogen synthesis” value in data set [4] (STZ-diabetic mice, data not shown) was “increases hepatic and muscular glycogen synthesis”. In addition, in data set [4] (intravenous, 0.3 mg per mice, 120-300 min after administration), the plasma glucose concentrations entry is “significantly reduced plasma glucose concentrations”.

The record behind these values is patent publication US20100197625A1, “SYNTHETIC LIPOPHILIC INOSITOL GLYCANS FOR TREATMENT OF CANCER AND GLUCOSE-METABOLISM DISORDERS” (priority 2006, published 2010).
